Source: US20120165304A1, “6,7,8,9-Tetrahydro-5H-1,4,7,10a-tetraaza-cyclohept[f]indene derivatives, pharmaceutical compositions containing these compounds, their use and processes for preparing them” (BOEHRINGER INGELHEIM INTERNATIONAL GMBH, priority 2008, published 2012)

target: human 5-HT2C receptor (Homo sapiens, UniProt P28335, I156V/I160V/N158S); assay: cell-based
Sequence (P28335 33-458 I156V/N158S/I160V limits assumed): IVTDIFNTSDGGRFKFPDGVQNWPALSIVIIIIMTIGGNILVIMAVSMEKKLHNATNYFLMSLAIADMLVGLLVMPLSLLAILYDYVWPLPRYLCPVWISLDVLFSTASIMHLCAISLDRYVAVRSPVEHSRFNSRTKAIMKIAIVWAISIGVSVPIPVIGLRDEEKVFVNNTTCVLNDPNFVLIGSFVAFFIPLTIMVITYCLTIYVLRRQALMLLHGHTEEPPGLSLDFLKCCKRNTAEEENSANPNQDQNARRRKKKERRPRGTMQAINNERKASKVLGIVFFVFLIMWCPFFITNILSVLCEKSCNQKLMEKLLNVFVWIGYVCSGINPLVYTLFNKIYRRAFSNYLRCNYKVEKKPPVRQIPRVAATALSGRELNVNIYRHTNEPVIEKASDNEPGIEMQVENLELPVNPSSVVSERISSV

Row | Compound | EC50 [nM]
1 | O=C(C1CN(c2c3c(nc4ccnn24)CCNCC3)C1)N1CCC(Oc2ccccn2)CC1 [Example 31.230] | 54
2 | O=C(C1CN(c2c3c(nc4ccnn24)CCNCC3)C1)N1CC=C(c2ccccc2)CC1 [Example 31.181] | 84
3 | COc1ccc(C)cc1OCC1CN(c2c3c(nc4ccnn24)CCNCC3)C1 [Example 15.7] | 12
4 | CN(CC1CCCCC1)C(=O)C1CN(c2c3c(nc4ccnn24)CCNCC3)C1 [Example 31.100] | 158
5 | Cc1ccc(F)c(OCC2CN(c3c4c(nc5ccnn35)CCNCC4)C2)c1F [Example 15.24] | 54
6 | O=C(C1CN(c2c3c(nc4ccnn24)CCNCC3)C1)N1CCN(C2CCOCC2)CC1 [Example 37.31] | 7
7 | CN(CC1CC1)C(=O)C1CN(c2c3c(nc4ccnn24)CCNCC3)C1 [Example 31.97] | 156
8 | COC1(C)CCN(C(=O)C2CN(c3c4c(nc5ccnn35)CCNCC4)C2)CC1 [Example 31.220] | 55
9 | Cc1ccc2c(c1)CCN2C(=O)C1CN(c2c3c(nc4ccnn24)CCNCC3)C1 [Example 31.156] | 135
10 | CC(C)CC(=O)N1CCN(C(=O)C2CN(c3c4c(nc5ccnn35)CCNCC4)C2)CC1 [Example 37.57] | 27
11 | O=C(C1CN(c2c3c(nc4ccnn24)CCNCC3)C1)N1CCCC1 [Example 31.64] | 199
12 | O=C(C1CN(c2c3c(nc4ccnn24)CCNCC3)C1)N1CCN(c2ccc(F)cc2)CC1 [Example 37.8] | 8
13 | C=C1CCN(C(=O)C2CN(c3c4c(nc5ccnn35)CCNCC4)C2)CC1 [Example 31.229] | 108
14 | O=C(C1CN(c2c3c(nc4ccnn24)CCNCC3)C1)N1CCCCCC1 [Example 31.142] | 186
15 | N#Cc1cccc(OC2CN(c3c4c(nc5ccnn35)CCNCC4)C2)c1 [Example 35.4] | 81
16 | CN(Cc1cccc2ccccc12)C(=O)C1CN(c2c3c(nc4ccnn24)CCNCC3)C1 [Example 31.76] | 81
17 | CN1CCc2nc3ccnn3c(N3CC(C(=O)N4CCN(C5CCCCC5)CC4)C3)c2CC1 [Example 36.54] | 97
18 | c1cnn(CC2CN(c3c4c(nc5ccnn35)CCNCC4)C2)c1 [Example 17, 10-(3-Pyrazol-1-ylmethyl-azetidin-1-yl)-6,7,8,9-tetrahydro-5H-1,4,7,10a-tetraaza-cyclohepta[f]indene] | 15
19 | CN(C)C(=O)[C@@H]1CCN(c2c3c(nc4ccnn24)CCNCC3)C1 [Example 1.62] | 2070
20 | O=C(C1CN(c2c3c(nc4ccnn24)CCNCC3)C1)N1CCC(N2CCOCC2)CC1 [Example 37.19] | 5
21 | O=C(NCC1CCC1)C1CN(c2c3c(nc4ccnn24)CCNCC3)C1 [Example 37.50] | 51
22 | Clc1ccncc1OC1CN(c2c3c(nc4ccnn24)CCNCC3)C1 [Example 35.35] | 67
23 | CC1CC(c2ccccc2)CN1C(=O)C1CN(c2c3c(nc4ccnn24)CCNCC3)C1 (centres unmarked) [Example 31.128] | 54
24 | CN1CCN(C(=O)C2CN(c3c4c(nc5ccnn35)CCNCC4)C2)CC1 [Example 37.35] | 4
25 | O=C(C1CN(c2c3c(nc4ccnn24)CCNCC3)C1)N1CC(Cc2ccccc2)C1 [Example 31.119] | 82
26 | Brc1cnn2c(N3CCC(c4ccccc4)C3)c3c(nc12)CCNCC3 (centres unmarked) [Example 2.2] | 56
27 | COCCNC(=O)C1CN(c2c3c(nc4ccnn24)CCNCC3)C1 [Example 37.73] | 88

Row | Compound | EC50 [nM]
28 | Cc1csc(C2CN(c3c4c(nc5ccnn35)CCNCC4)C2)n1 [Example 11, 10-[3-(4-Methyl-thiazol-2-yl)-azetidin-1-yl]-6,7,8,9-tetrahydro-5H-1,4,7,10a-tetraaza-cyclohepta[f]indene] | 161
29 | Cc1ncccc1OC1CN(c2c3c(nc4ccnn24)CCNCC3)C1 [Example 35.24] | 120
30 | CC(C)N(C)C(=O)C1CN(c2c3c(nc4ccnn24)CCNCC3)C1 [Example 31.6] | 5940
31 | CNC(=O)C1CN(c2c3c(nc4ccnn24)CCNCC3)C1 [Example 9.1] | 818
32 | COc1ccc2ccc(OC3CN(c4c5c(nc6ccnn46)CCNCC5)C3)cc2c1 [Example 35.11] | 926
33 | CN1CCc2nc3ccnn3c(N3CC(C(=O)N4CCCN(C)CC4)C3)c2CC1 [Example 36.12] | 73
34 | Fc1cc(Cl)ccc1OCC1CN(c2c3c(nc4ccnn24)CCNCC3)C1 [Example 15.12] | 9
35 | CS(=O)(=O)N1CCN(C(=O)C2CN(c3c4c(nc5ccnn35)CCNCC4)C2)CC1 [Example 37.45] | 2
36 | c1cc2nc3c(c(N4CC(OC5CCCC5)C4)n2n1)CCNCC3 [Example 20.5] | 358
37 | Cc1cnn2c(N3CC(C(=O)N4CCC5(CC4)OCc4ccccc45)C3)c3c(nc12)CCNCC3 [Example 31.242] | 86
38 | O=C(C1CN(c2c3c(nc4ccnn24)CCNCC3)C1)N1CCC(Oc2ccccc2)CC1 [Example 31.154] | 40
39 | O=C(C1CN(c2c3c(nc4ccnn24)CCNCC3)C1)N1CC=CCC1 [Example 31.178] | 109
40 | CC(C)(C)C1CCN(C(=O)C2CN(c3c4c(nc5ccnn35)CCNCC4)C2)CC1 [Example 31.121] | 22
41 | O=C(C1CN(c2c3c(nc4ccnn24)CCNCC3)C1)N1CCC(c2cccc(F)c2)C1 (centres unmarked) [Example 31.118] | 11
42 | CN(C)CCCNC(=O)C1CN(c2c3c(nc4ccnn24)CCN(C)CC3)C1 [Example 36.53] | 87
43 | Cc1cc(Cl)ccc1OC1CN(c2c3c(nc4ccnn24)CCNCC3)C1 [Example 35.20] | 326
44 | CN1CCc2nc3ccnn3c(N3CC(C(=O)N4CCN(C(=O)C5CCCCC5)CC4)C3)c2CC1 [Example 36.22] | 181
45 | Cc1cnc(C2CN(c3c4c(nc5ccnn35)CCNCC4)C2)o1 [Example 10, 10-[3-(5-Methyl-oxazol-2-yl)-azetidin-1-yl]-6,7,8,9-tetrahydro-5H-1,4,7,10a-tetraaza-cyclohepta[f]indene] | 846
46 | CN(C)CCCN(C)C(=O)C1CN(c2c3c(nc4ccnn24)CCN(C)CC3)C1 [Example 36.55] | 87
47 | CN(Cc1cccs1)C(=O)C1CN(c2c3c(nc4ccnn24)CCNCC3)C1 [Example 31.43] | 35
48 | CCCCN1CCN(C(=O)C2CN(c3c4c(nc5ccnn35)CCNCC4)C2)CC1 [Example 37.25] | 3
49 | C#CC1(NC(=O)C2CN(c3c4c(nc5ccnn35)CCNCC4)C2)CCCCC1 [Example 37.79] | 62
50 | O=C(C1CCCN(c2c3c(nc4ccnn24)CCNCC3)C1)N1CCCCC1 (centres unmarked) [Example 1.61] | 4710
51 | O=C(C1CN(c2c3c(nc4ccnn24)CCNCC3)C1)N1CCC(O)(c2cc(F)cc(F)c2)CC1 [Example 31.195] | 7
52 | O=C(C1CN(c2c3c(nc4ccnn24)CCNCC3)C1)N1CCC2(CCC2)C1 [Example 31.56] | 43
53 | FC(F)(F)Oc1ccccc1OC1CN(c2c3c(nc4ccnn24)CCNCC3)C1 [Example 35.18] | 636
54 | CCCn1c(C2CN(c3c4c(nc5ccnn35)CCNCC4)C2)nc2ccccc21 [Example 34.35] | 472

Row | Compound | EC50 [nM]
55 | O=C(C1CN(c2c3c(nc4ccnn24)CCNCC3)C1)N1CCN2CCCC2C1 (centres unmarked) [Example 37.9] | 3
56 | CC1CC(C)CN(C(=O)C2CN(c3c4c(nc5ccnn35)CCNCC4)C2)C1 (centres unmarked) [Example 31.22] | 85
57 | CC(C)COC1CN(c2c3c(nc4ccnn24)CCNCC3)C1 [Example 20.1] | 359
58 | Brc1cnn2c(N3CC(Oc4ccccc4)C3)c3c(nc12)CCNCC3 [Example 2.1] | 7
59 | CC(=O)NC1CCN(C(=O)C2CN(c3c4c(nc5ccnn35)CCNCC4)C2)C1 (centres unmarked) [Example 37.27] | 14
60 | CC(c1ccccc1)n1c(C2CN(c3c4c(nc5ccnn35)CCNCC4)C2)nc2cc(Cl)ccc21 (centres unmarked) [Example 34.37] | 2380
61 | CCCCNC(=O)C1CN(c2c3c(nc4ccnn24)CCNCC3)C1 [Example 37.72] | 91
62 | CN(Cc1ccc(-c2ccccc2)cc1)C(=O)C1CN(c2c3c(nc4ccnn24)CCNCC3)C1 [Example 31.82] | 154
63 | CC1(C(=O)N2CCC3(CC2)OCc2ccccc23)CN(c2c3c(nc4ccnn24)CCNCC3)C1 [Example 32.5] | 6550
64 | CC(C)C1(O)CCN(C(=O)C2CN(c3c4c(nc5ccnn35)CCN(C)CC4)C2)CC1 [Example 36.26] | 191
65 | Fc1cc(F)c2nc(C3CN(c4c5c(nc6ccnn46)CCNCC5)C3)[nH]c2c1 [Example 34.24] | 136
66 | O=C(C1CN(c2c3c(nc4ccnn24)CCNCC3)C1)N1CCCC2(CCCc3ccccc32)C1 (centres unmarked) [Example 31.172] | 765
67 | Fc1c(Cl)cccc1OCC1CN(c2c3c(nc4ccnn24)CCNCC3)C1 [Example 15.25] | 212
68 | CN(Cc1nccs1)C(=O)C1CN(c2c3c(nc4ccnn24)CCNCC3)C1 [Example 31.13] | 99
69 | CN(CCc1ccccc1)C(=O)C1CN(c2c3c(nc4ccnn24)CCNCC3)C1 [Example 31.61] | 176
70 | CC(C)(C)N1CCC2(CCN(c3c4c(nc5ccnn35)CCNCC4)CC2)C1=O [Example 1.65] | 4900
71 | CC(C)N1CCCN(C(=O)C2CN(c3c4c(nc5ccnn35)CCN(C)CC4)C2)CC1 [Example 36.49] | 78
72 | Cc1ccc2c(c1)N(C(=O)C1CN(c3c4c(nc5ccnn35)CCNCC4)C1)CC2 [Example 31.176] | 95
73 | COC[C@H]1CCCN1c1c2c(nc3ccnn13)CCNCC2 [Example 1.12] | 507
74 | CN(Cc1cccc(C(F)(F)F)c1)C(=O)C1CN(c2c3c(nc4ccnn24)CCNCC3)C1 [Example 31.149] | 45
75 | O=C(C1CN(c2c3c(nc4ccnn24)CCNCC3)C1)N1CCC(F)CC1 [Example 31.206] | 146
76 | O=C(C1CN(c2c3c(nc4ccnn24)CCNCC3)C1)N1CCC(c2ccccc2F)CC1 [Example 31.113] | 27
77 | CC1CCCN1c1c2c(nc3ccnn13)CCNCC2 (centres unmarked) [Example 1.13] | 2300
78 | CC(C)NC1CCN(C(=O)C2CN(c3c4c(nc5ccnn35)CCNCC4)C2)CC1 [Example 37.21] | 2
79 | Cc1ccc(CN(C)C(=O)C2CN(c3c4c(nc5ccnn35)CCNCC4)C2)cc1 [Example 31.50] | 51
80 | c1cc2c3c(cccc3c1)CN(c1c3c(nc4ccnn14)CCNCC3)C2 [Example 1.50] | 924
